# Data: US20250066300A1, “3-(2-(DIMETHYLAMINO)ETHYL)-1H-INDOL-4-yl OLIGOMERIC DERIVATIVES” (priority 2023, published 2025)
# Test: Psilocin conversion in the dose formulation (HPLC-MS/MS)
# Type: physicochemical
# Conditions: saline formulation, final pH 6.3, aliquots stored at −80° C. until analysis
# Experimental: Compounds: Compound 122 was dissolved in saline (1.3 mg/kg) and adjusted to pH 7.4 for SC administration to the neck scruff at a dosing volume of 5 mL/kg. The final pH was checked prior to dosing, and found to be pH 6.3. This dose was selected as it delivered 0.72 mg/kg psilocin (assuming 100% conversion of the pro-drug). Aliquots of the formulation was additionally collected and stored at −80° C. until analysis by high performance liquid chromatography with tandem mass spectrometry (HPLC-MS/MS) to confirm dosing of compound 122 and minimal conversion to psilocin pre-dose (<2.5%).
# […]. Three aliquots from the dose formulations were diluted to a nominal concentration of 5 μg/mL, and injected in triplicate into the HPLC-MS/MS. The relative percentage of the psilocin peak in the dose formulation compared to the psilocin standard peak at 5 μg/mL, was used to assess for psilocin conversion in the dosing formulations.
compound,measurement,value
"CN(C)CCc1c[nH]c2cccc(OC(=O)CCCC(=O)Oc3cccc4[nH]cc(CCN(C)C)c34)c12 [Compound 122, bis(3-(2-(dimethylamino)ethyl)-1H-indol-4-yl) glutarate]",conversion to psilocin pre-dose in dose formulation,< 2.5%
